Results as given in ChEMBL document CHEMBL3097995, “NAD-based inhibitors with anticancer potential” (Bioorg Med Chem Lett, 2014).

Legend:
[1] = test system: HL-60; experiment: Antiproliferative activity against human HL60 cells; assay type: functional, cell-based
[2] = test system: DU-145; experiment: Antiproliferative activity against human DU145 cells; assay type: functional, cell-based
[3] = test system: K562; experiment: Antiproliferative activity against human K562 cells; assay type: functional, cell-based
[4] = biological target: Inosine-5'-monophosphate dehydrogenase 1 (Homo sapiens, UniProt P20839); experiment: Inhibition of IMPDH1 (unknown origin)
Sequence of Inosine-5'-monophosphate dehydrogenase 1 (P20839 whole entry): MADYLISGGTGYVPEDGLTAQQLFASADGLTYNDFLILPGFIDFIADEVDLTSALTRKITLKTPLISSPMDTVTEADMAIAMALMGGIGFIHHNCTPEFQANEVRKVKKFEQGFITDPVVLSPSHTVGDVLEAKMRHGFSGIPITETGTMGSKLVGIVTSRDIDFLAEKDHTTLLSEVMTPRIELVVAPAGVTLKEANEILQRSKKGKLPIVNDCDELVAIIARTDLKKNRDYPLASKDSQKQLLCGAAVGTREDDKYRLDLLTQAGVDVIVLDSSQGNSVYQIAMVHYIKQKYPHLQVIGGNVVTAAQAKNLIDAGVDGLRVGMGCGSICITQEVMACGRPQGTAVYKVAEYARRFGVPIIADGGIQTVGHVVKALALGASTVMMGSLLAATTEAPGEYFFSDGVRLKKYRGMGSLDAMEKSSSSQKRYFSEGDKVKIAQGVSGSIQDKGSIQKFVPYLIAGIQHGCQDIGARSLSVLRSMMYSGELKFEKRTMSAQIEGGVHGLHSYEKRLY

[5] = test system: PC-3; experiment: Antiproliferative activity against human PC3 cells; assay type: functional, cell-based
[6] = biological target: Inosine-5'-monophosphate dehydrogenase 2 (Homo sapiens, UniProt P12268); experiment: Inhibition of IMPDH2 (unknown origin)
[7] = Drug degradation in human plasma after 24 hrs; assay type: ADME, cell-free; conditions: read-out: Drug degradation
[8] = Binding affinity to human IMPDH
[9] = organism: Homo sapiens; experiment: Selectivity ratio of Ki for IMPDH2 (unknown origin) to Ki for IMPDH1 (unknown origin)
[10] = test system: HT-29; experiment: Antiproliferative activity against human HT-29 cells; assay type: functional, cell-based
[11] = test system: HeLa; experiment: Antiproliferative activity against human HeLa cells; assay type: functional, cell-based

| IC50 [1] [nM] | IC50 [2] [nM] | IC50 [3] [nM] | Ki [4] [nM] | IC50 [5] [nM] | Ki [6] [nM] | metabolised at 24 h [7] [%] | Ki [8] [nM] | Ratio Ki [9] | IC50 [10] [nM] | IC50 [11] [nM] | Compound |
| --- | --- | --- | --- | --- | --- | --- | --- | --- | --- | --- | --- |
| 9300 | 5800 | 500 | 163 | 20000 | 102 | 20 | – | – | – | – | COc1c(C)c2c(c(O)c1C/C=C(\C)CCC(=O)OC[C@H]1O[C@@H](n3cnc4c(N)ncnc43)[C@H](O)[C@@H]1O)C(=O)OC2 |
| – | – | – | – | – | – | – | 10 | – | – | – | COc1c(C)c2c(c(O)c1C/C=C(\C)CCC(=O)O)C(=O)OC2 [MYCOPHENOLIC ACID] |
| – | – | 400 | 0.6 | – | 14 | – | – | 23 | 2000 | 1000 | COc1c(C)c2c(c(O)c1CCOP(=O)(O)CP(=O)(O)OC[C@H]1O[C@@H](n3cnc4c(N)nc(-c5ccncc5)nc43)[C@H](O)[C@@H]1O)C(=O)OC2 |
